In US9393221B2, “Methods and compounds for reducing intracellular lipid storage” (THE GENERAL HOSPITAL CORPORATION, priority 2011, dated 2016):
Counter-ions that a name gives are not always drawn. Like-named read-outs stand apart in the source and are kept apart here.

Test system: ATGL-KO iPSCs
Assay: High throughput iPSC chemical screening, Oil Red O (ORO) lipid accumulation; for Z-score: test concentration or dose not given here
Format: cell-based, mouse
[1] = normalized ORO level vs DMSO-treated cells, compound present during 7 days differentiation, 96-well, negative = decrease in lipid accumulation

Molecule	Z-score [1]	further results
CC(C)NCC(O)COc1cccc2[nH]ccc12 (centres unmarked) [Pindolol]	0.03656	
CC(=O)O[C@H]1CC[C@@]2(C)C(=CC[C@@H]3[C@@H]2CC[C@]2(C)C(=O)CC[C@@H]32)C1 [Dehydroisoandosterone 3-acetate]	−0.697	
COc1ccc2[nH]c([S+]([O-])Cc3ncc(C)c(OC)c3C)nc2c1 (centres unmarked) [Omeprazole]	−0.5848	
CN(C)CC/C=C1\c2ccccc2CSc2ccccc21 [Dosulepin hydrochloride]	0.00689	
CN(C)CCCN1c2ccccc2Sc2ccccc21 [Promazine hydrochloride]	0.01386	
Cc1nnc(SCC2=C(C(=O)O)N3C(=O)[C@@H](NC(=O)Cn4cnnn4)[C@H]3SC2)s1 [Cefazolin sodium salt]	−0.8698	
Iobenguane sulfate	−0.2715	
CCN[C@H]1C[C@H](C)S(=O)(=O)c2sc(S(N)(=O)=O)cc21 [Dorzolamide hydrochloride]	1.587	
CCN(CC)C(=O)N[C@H]1C=C2c3cccc4[nH]cc(c34)C[C@H]2N(C)C1 [Lisuride (S)(−)]	−0.7927	
C[C@@H]1CC[C@H]2[C@@H](C)C(=O)O[C@@H]3O[C@@]4(C)CC[C@@H]1[C@]32OO4 [Artemisinin]	4.801	
CN[C@H](CC(C)C)C(=O)N[C@H]1C(=O)N[C@@H](CC(N)=O)C(=O)N[C@H]2C(=O)N[C@H]3C(=O)N[C@H](C(=O)N[C@H](C(=O)O)c4cc(O)cc(O)c4-c4cc3ccc4O)[C@H](O)c3ccc(c(Cl)c3)Oc3cc2cc(c3O[C@@H]2O[C@H](CO)[C@@H](O)[C@H](O)[C@H]2O[C@H]2C[C@](C)(N)[C@H](O)[C@H](C)O2)Oc2ccc(cc2Cl)[C@H]1O [Vancomycin hydrochloride]		Z-score: −0.5906
COc1ccc(C(=O)NCc2cccnc2)cc1C(=O)NCc1cccnc1 [Picotamide monohydrate]	−1.2123	
C[C@]12CC[C@H]3C(=CCc4cc(O)ccc43)[C@@H]1CCC2=O [Equilin]	−1.0652	
CCOC(=O)c1ccc(N)cc1 [Benzocaine]	1.149	
N[C@@H]1CONC1=O [D-cycloserine]	−1.0332	
O=c1oc2ccccc2c(O)c1Cc1c(O)c2ccccc2oc1=O [Dicumarol]	1.966	
Nc1ccc(O)c(C(=O)O)c1 [Mesalamine]	−0.1803	

Molecule	Z-score [1]	further results
NC[C@H]1O[C@H](O[C@H]2[C@H](O)[C@@H](O[C@H]3O[C@H](CO)[C@@H](O)[C@H](N)[C@H]3O)[C@H](N)C[C@@H]2N)[C@H](O)[C@@H](O)[C@@H]1O.O=S(=O)(O)O [Kanamycin A sulfate]	2.436	
O=c1[nH]c2ccccc2n1C1CCN(CCCC(c2ccc(F)cc2)c2ccc(F)cc2)CC1 [Pimozide]	−0.7483	Rank in normalized ORO score from screen (glycolytic switch compounds): 330
CN(C)CCC=C1c2ccccc2COc2ccccc21 [Doxepin hydrochloride]	−1.0091	
CN1CCCN=C1/C=C/c1cccc(O)c1.O=C(O)c1cc2ccccc2c(Cc2c(O)c(C(=O)O)cc3ccccc23)c1O [Oxantel pamoate]	1.422	
O=C(CCNNC(=O)c1ccncc1)NCc1ccccc1 [Nialamide]	0.6794	
CCCNC(C)C(=O)Nc1c(C)csc1C(=O)OC (centres unmarked) [Articaine hydrochloride]	0.836	
Clc1ccc(Cn2c(CN3CCCC3)nc3ccccc32)cc1 [Clemizole hydrochloride]	−0.5701	
C[C@H](CCC(=O)O)[C@H]1CC[C@H]2[C@@H]3C(=O)C[C@@H]4CC(=O)CC[C@]4(C)[C@H]3CC(=O)[C@]12C [Dehydrocholic acid]	−1.006	
OC(CCN1CCCC1)(c1ccccc1)C1CCCCC1 (centres unmarked) [Procyclidine hydrochloride]	−0.6071	
CCOC(=O)OC(C)OC(=O)[C@@H]1N2C(=O)[C@@H](NC(=O)[C@H](N)c3ccccc3)[C@H]2SC1(C)C (some centres unmarked) [Bacampicillin hydrochloride]	0.09702	
NS(=O)(=O)c1cc2c(cc1C(F)(F)F)NCNS2(=O)=O [Hydroflumethiazide]	0.1855	
O=C1C[C@@H](c2ccc(O)cc2)Oc2cc(O)cc(O)c21 [Naringenine]	1.336	
CN[C@@H]1[C@H](O)[C@H](NC)[C@H]2O[C@@]3(O)C(=O)C[C@@H](C)O[C@H]3O[C@@H]2[C@H]1O [Spectinomycin dihydrochloride]	−0.1287	
CNCCCC1c2ccccc2C=Cc2ccccc21 [Protriptyline hydrochloride]	−0.1298	
C[C@H](CCC(=O)O)[C@H]1CC[C@H]2[C@@H]3[C@@H](O)C[C@@H]4C[C@H](O)CC[C@]4(C)[C@H]3CC[C@]12C [Urosiol]	0.02187	
Cc1onc(-c2c(Cl)cccc2Cl)c1C(=O)N[C@@H]1C(=O)N2[C@@H]1SC(C)(C)[C@@H]2C(=O)O [Dicloxacillin sodium salt]	−0.1893	
O=C(O)c1ccccc1OP(=O)(O)O [Fosfosal]	−1.2351	
